# Reference: patent US8580968B2, “Benzothiazole and benzooxazole derivatives and methods of use” (AbbVie Inc., priority 2007, dated 2013)
# Columns and labels:
# [1] = test system: Male Sprague Dawley rats; experiment: analgesic effect against neuropathic pain (L5/L6 spinal nerve ligation, von Frey mechanical allodynia); type: in vivo, rat; conditions: intraperitoneal injection
# Protocol: Animals were prepared for testing, by use of a surgical procedure that induces neuropathic pain in one paw. Male Sprague Dawley rats were purchased from Charles River (Portage, Mich.). Prior to surgery, animals were housed in groups and maintained in a temperature-regulated environment. Following nerve ligation surgery, animals were housed in groups, and had access to food and water ad libitum.
# The L5 and L6 spinal nerves of anesthetized rats were tightly ligated in a manner described previously (see Kim and Chung, Pain (1992) vol. 50 pp. 355-363). An incision was made on the dorsal portion of the hip and the muscle was blunt-dissected to reveal the spinal processes. […] The paw affected by the surgical procedure (the left paw) develops an allodynic response, a hypersensitivity to mechanical and other stimuli; neuropathic pain is assessed as an increased sensitivity in the surgically affected (left) allodynic paw compared to the control paw on the right side, and measured by comparing the response of the (left side) allodynic paw to the response of the unaffected right side control paw.
# For the assessment of neuropathic pain, mechanical allodynia in the affected paw of animals that had undergone spinal nerve ligation was evaluated using testing with von Frey filaments. […]
# [2] = test system: adult osteoarthritic rats; experiment: osteoarthritis model (MIA-induced knee joint osteoarthritis, hind limb grip force); type: in vivo, rat; conditions: intraperitoneal injection; for effect on hind limb grip force: p<0.01, 20 days after MIA
# Protocol: Unilateral knee joint osteoarthritis was induced in rats by a single intra-articular (i.a.) injection of sodium monoiodoacetate (MIA) (Sigma-Aldrich, St. Louis, Mo.) (3 mg in 50 μl sterile isotonic saline) into the right knee joint cavity under light (1-3%) isoflurane anesthesia.
# Pain behavior was assessed by measurement of hind limb grip force (GF) in adult osteoarthritic rats. Following the unilateral injection of MIA (male Sprague Dawley, 325-350 g, tested at 20 days following MIA injection), a behavioral measure of activity-induced pain was carried out. Measurements of the peak hind limb grip force were conducted by recording the maximum compressive force (CFmax), in grams of force, exerted on a hind limb strain gauge setup, in a commercially available grip force measurement system (Columbus Instruments, Columbus, Ohio).
# During testing, each rat was gently restrained by grasping it around its rib cage and then allowed to grasp the wire mesh frame attached to the strain gauge. The experimenter then moved the animal in a rostral-to-caudal direction until the grip was broken. Each rat was sequentially tested twice at approximately 2-3 min interval to obtain a raw mean grip force (CFmax). This raw mean grip force data was in turn converted to a maximum hindlimb cumulative compressive force (CFmax), as the grams of force/kg of body weight, for each animal.
# For evaluating the compound effects, the hind limb grip force was conducted 20 days following the intra-articular injection of MIA. A group of age-matched naïve (not injected with MIA) animals was added as a comparator to the drug-dosed groups. The vehicle control response for each group of MIA-treated animals was defined as the 0% response (0% effect), whereas the naïve control group was defined as the normal response and as 100% effect. The % effects for each dose group was expressed as % return of response to normalcy, compared to the naïve group. That is, the % effect=(Treatment CFmax−Vehicle CFmax)/Vehicle CFmax]×100). All experiments evaluating drug effects in this model were conducted in a randomized blinded fashion. […]
# [3] = test system: mice; experiment: single trial 24-hour inhibitory avoidance model (memory); type: in vivo, mouse; conditions: 0.03 mg/kg, intraperitoneal injection, p<0.01 versus vehicle injected control mice
# Description: The ability of compounds to treat diseases with deficits in memory and cognition such as Alzheimer's disease, dementia, age-related cognitive impairment, schizophrenia, and cognitive deficits of schizophrenia can be assessed in animal models. One model assessing the capability of a compound to enhance memory is the single trial 24-hour inhibitory avoidance model, described in Tietje et al. (Tietje, K. R., et al. “Preclinical Characterization of A-582941: A Novel α7 Neuronal Nicotinic Receptor Agonist with Broad Spectrum Cognition-Enhancing Properties” CNS Neuroscience and Therapeutics 2008 v14 pp. 65-82). In this mouse model, at a dose of 0.03 mg/kg, administered by intraperitoneal injection, the compound of Example 20 ((R)-2-(2-(3-(piperidin-1-yl)pyrrolidin-1-yl)benzo[d]thiazol-6-yl)pyridazin-3(2H)-one) achieved full efficacy, (p<0.01 versus vehicle injected control mice).
smiles,measurement,setting,value
"O=c1cccnn1-c1ccc2nc(N3CC[C@@H](N4CCCCC4)C3)sc2c1 [Example 20, (R)-2-(2-(3-(piperidin-1-yl)pyrrolidin-1-yl)benzo[d]thiazol-6-yl)pyridazin-3(2H)-one]",reduction in mechanical allodynia,"[1]; 3 mg/kg, p<0.01",40%
same,adverse effects,[1]; neuropathic pain model,No complicating adverse effects were observed
same,effect on hind limb grip force,[2]; 1 mg/kg,49%
same,effect on hind limb grip force,[2]; 3 mg/kg,69%
same,adverse effects,[2]; osteoarthritis model,No complicating adverse effects were observed
same,efficacy in inhibitory avoidance (memory enhancement),[3],full efficacy
